# Test results as given in PubChem BioAssay (NCI).
#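 Growth conditions: 96-well plates. Treatment: test compound, 48 hours, 5 concentrations. Analysis: linear interpolation between bracketing concentrations; unreached endpoints set to highest concentration. The concentration for 50% growth inhibition is given as GI50. TGI: total growth inhibition.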
# Experiments:
# Assay in all cases: NCI anticancer screen, dose series, 48 h
# SK-MEL-5 melanoma = system: SK-MEL-5 melanoma
# LOX IMVI melanoma = system: LOX IMVI melanoma
# RPMI-8226 leukemia = system: RPMI-8226 leukemia
# PC-3 prostate = system: PC-3 prostate
# SR leukemia = system: SR leukemia
# NCI-H23 lung = system: NCI-H23 lung
# HCC-2998 colon = system: HCC-2998 colon
# ACHN renal = system: ACHN renal
# SNB-75 CNS = system: SNB-75 CNS
# SK-MEL-28 melanoma = system: SK-MEL-28 melanoma
# SN12C renal = system: SN12C renal
# HS 578T breast = system: HS 578T breast
# MOLT-4 leukemia = system: MOLT-4 leukemia
# DU-145 prostate = system: DU-145 prostate
# A498 renal = system: A498 renal
# SW-620 colon = system: SW-620 colon
# MDA-MB-435 = system: MDA-MB-435
# MDA-MB-231 breast = system: MDA-MB-231 breast
# HL-60(TB) leukemia = system: HL-60(TB) leukemia
# SF-539 CNS = system: SF-539 CNS
# HCT-15 colon = system: HCT-15 colon
# OVCAR-5 ovarian = system: OVCAR-5 ovarian
# SK-OV-3 ovarian = system: SK-OV-3 ovarian
# CCRF-CEM leukemia = system: CCRF-CEM leukemia
# K-562 leukemia = system: K-562 leukemia
# NCI/ADR-RES ovarian = system: NCI/ADR-RES ovarian
# HOP-92 NSCLC = system: HOP-92 NSCLC
# UO-31 renal = system: UO-31 renal
# SF-295 CNS = system: SF-295 CNS
# UACC-257 melanoma = system: UACC-257 melanoma
# UACC-62 melanoma = system: UACC-62 melanoma
smiles,measurement,setting,value
IP(CCCCCCCCCCSc1n(Cc2ccc3ccccc3c2)c(-c2ccccc2)c(-c2ccccc2)[n+]1Cc1ccc2ccccc2c1)(c1ccccc1)(c1ccccc1)c1ccccc1,GI50,SK-MEL-5 melanoma,1100 nM
same,TGI,SK-MEL-5 melanoma,2310 nM
same,GI50,LOX IMVI melanoma,553 nM
same,TGI,LOX IMVI melanoma,1820 nM
same,GI50,RPMI-8226 leukemia,337 nM
same,TGI,RPMI-8226 leukemia,1500 nM
same,GI50,PC-3 prostate,415 nM
same,TGI,PC-3 prostate,1730 nM
same,GI50,SR leukemia,347 nM
same,TGI,SR leukemia,1720 nM
same,GI50,NCI-H23 lung,322 nM
same,TGI,NCI-H23 lung,1320 nM
same,GI50,HCC-2998 colon,531 nM
same,TGI,HCC-2998 colon,1920 nM
same,GI50,ACHN renal,1820 nM
same,TGI,ACHN renal,3640 nM
same,GI50,SNB-75 CNS,389 nM
same,TGI,SNB-75 CNS,1890 nM
same,GI50,SK-MEL-28 melanoma,764 nM
same,TGI,SK-MEL-28 melanoma,2140 nM
same,GI50,SN12C renal,399 nM
same,TGI,SN12C renal,1540 nM
same,GI50,HS 578T breast,670 nM
same,TGI,HS 578T breast,3960 nM
same,GI50,MOLT-4 leukemia,541 nM
same,TGI,MOLT-4 leukemia,2310 nM
same,GI50,DU-145 prostate,748 nM
same,TGI,DU-145 prostate,2190 nM
same,GI50,A498 renal,1350 nM
same,TGI,A498 renal,3020 nM
same,GI50,SW-620 colon,794 nM
same,TGI,SW-620 colon,2160 nM
same,GI50,MDA-MB-435,403 nM
same,TGI,MDA-MB-435,1590 nM
same,GI50,MDA-MB-231 breast,318 nM
same,TGI,MDA-MB-231 breast,1260 nM
same,GI50,HL-60(TB) leukemia,189 nM
same,TGI,HL-60(TB) leukemia,438 nM
same,GI50,SF-539 CNS,771 nM
same,TGI,SF-539 CNS,2150 nM
same,GI50,HCT-15 colon,1790 nM
same,TGI,HCT-15 colon,3420 nM
same,GI50,OVCAR-5 ovarian,1500 nM
same,TGI,OVCAR-5 ovarian,3000 nM
same,GI50,SK-OV-3 ovarian,714 nM
same,TGI,SK-OV-3 ovarian,2170 nM
same,GI50,CCRF-CEM leukemia,489 nM
same,TGI,CCRF-CEM leukemia,1950 nM
same,GI50,K-562 leukemia,411 nM
same,TGI,K-562 leukemia,1840 nM
same,GI50,NCI/ADR-RES ovarian,3940 nM
same,TGI,NCI/ADR-RES ovarian,23600 nM
same,GI50,HOP-92 NSCLC,240 nM
same,TGI,HOP-92 NSCLC,932 nM
same,GI50,UO-31 renal,1820 nM
same,TGI,UO-31 renal,4890 nM
same,GI50,SF-295 CNS,1570 nM
same,TGI,SF-295 CNS,3100 nM
same,GI50,UACC-257 melanoma,412 nM
same,TGI,UACC-257 melanoma,1700 nM
same,GI50,UACC-62 melanoma,562 nM
same,TGI,UACC-62 melanoma,2020 nM
